The assay relates to Sprague-Dawley rats (4-day cycling female). Description: Ovulation-inducing activity in rats, ED50 compared with LH-RH. The assay is classed as in vivo. The following applies: for Relative ovulation-inducing activity (ED50 compared with that of LH-RH itself): subcutaneous injection at 14:30 on the day of diestrous, ovulated ova in oviduct examined next morning, natural LH-RH control = 100%. Here is the method: Ovulation-inducing activity is determined in Sprague-Dawley rats (4-day cycling female) in which the injection of the compound was made subcutaneously at 14:30 on the day of diestrous, and the ovulated ova in the ampilla of the oviduct were examined on the morning of the next day. The results (ED50) were compared with that (ED50) of LH-RH itself. The assay results on the object compounds are as follows.

Non-standard residues stand in square brackets, D forms with d. Residues, ends and D or L forms follow the SMILES beside them. pGlu = O=C1CC[C@@H](C(=O)O)N1

As to `CCNC(=O)[C@@H]1CCCN1C(=O)[C@H](CCCNC(=N)N)NC(=O)[C@@H](NC(=O)[C@@H](C)NC(=O)[C@H](Cc1ccccc1)NC(=O)[C@H](CO)NC(=O)[C@H](Cc1c[nH]c2ccccc12)NC(=O)[C@H](Cc1c[nH]cn1)NC(=O)[C@@H]1CCC(=O)N1)[C@@H](C)CC` [His Phe Ile ethyl, (Pyr)Glu--His--Trp--Ser--Phe--(D)--Ala--Ile--Arg--Pro--NHCH2 CH3] ([pGlu]HWSF[dA]IRP-NHEt), the “Relative ovulation-inducing activity (ED50 compared with that of LH-RH itself)” value (from here on “Relative ovulation-inducing activity”) is listed as 3,200%.

Turning to `CCNC(=O)[C@@H]1CCCN1C(=O)[C@H](CCCNC(=N)N)NC(=O)[C@H](CC(C)C)NC(=O)[C@@H](C)NC(=O)[C@H](Cc1ccccc1)NC(=O)[C@H](CO)NC(=O)[C@H](Cc1c[nH]c2ccccc12)NC(=O)[C@H](Cc1c[nH]cn1)NC(=O)[C@@H]1CCC(=O)N1` [His Phe Leu ethyl, (Pyr)Glu--His--Trp--Ser--Phe--(D)--Ala--Leu--Arg--Pro--NH--CH2 --CH3] ([pGlu]HWSF[dA]LRP-NHEt), the “Relative ovulation-inducing activity” value is given as 5,810%. In addition, for the setting “product of process (III) compared with product of process (I) of Example 5(c)”, the “ED50 value of ovulation inducing activity” value is “identical”.

`CCNC(=O)[C@@H]1CCCN1C(=O)[C@H](CCCNC(=N)N)NC(=O)[C@H](CC(C)C)NC(=O)[C@@H](C)NC(=O)[C@H](Cc1ccc(O)cc1)NC(=O)[C@H](CO)NC(=O)[C@H](Cc1c[nH]c2ccccc12)NC(=O)[C@H](Cc1c[nH]cn1)NC(=O)[C@@H]1CCC(=O)N1` [His Tyr Leu ethyl, (Pyr)Glu--His--Trp--Ser--Tyr--(D)--Ala--Leu--Arg--Pro--NH--CH2 --CH3]: the “Relative ovulation-inducing activity” value is 6,100%.

Take `CCCC[C@H](NC(=O)[C@@H](C)NC(=O)[C@H](Cc1ccc(O)cc1)NC(=O)[C@H](CO)NC(=O)[C@H](Cc1c[nH]c2ccccc12)NC(=O)[C@H](Cc1c[nH]cn1)NC(=O)[C@@H]1CCC(=O)N1)C(=O)N[C@@H](CCCNC(=N)N)C(=O)N1CCC[C@H]1C(=O)NCC` [His Tyr Nle ethyl, (Pyr)Glu--His--Trp--Ser--Tyr--(D)--Ala--Nle--Arg--Pro--NHCH2 CH3]: the “Relative ovulation-inducing activity” value is recorded as 4,800%.

With `CCNC(=O)[C@@H]1CCCN1C(=O)[C@H](CCCNC(=N)N)NC(=O)[C@H](CC(C)C)NC(=O)[C@@H](C)NC(=O)[C@H](Cc1ccc(O)cc1)NC(=O)[C@H](CO)NC(=O)[C@H](Cc1c[nH]c2ccccc12)NC(=O)[C@H](Cc1ccc(O)cc1)NC(=O)[C@@H]1CCC(=O)N1` [Tyr Tyr Leu ethyl, (Pyr)Glu--Tyr--Trp--Ser--Tyr--(D)--Ala--Leu--Arg--Pro--NHCH2 CH3] ([pGlu]YWSY[dA]LRP-NHEt), the “Relative ovulation-inducing activity” value is 2,010%.

As to `CC(C)C[C@H](NC(=O)CNC(=O)[C@H](Cc1ccc(O)cc1)NC(=O)[C@H](CO)NC(=O)[C@H](Cc1c[nH]c2ccccc12)NC(=O)[C@H](Cc1c[nH]cn1)NC(=O)[C@@H]1CCC(=O)N1)C(=O)N[C@@H](CCCNC(=N)N)C(=O)N1CCC[C@H]1C(=O)NCC(N)=O` [natural LH--RH, (Pyr)Glu-His-Trp-Ser-Tyr-Gly-Leu-Arg-Pro-Gly-NH2, reference compound], the “Relative ovulation-inducing activity” value is given as 100%.

As for “(Pyr)Glu--p--NH2 --Phe--Trp--Ser--Tyr--(D)--Ala--Leu--Arg--Pro--NH--CH2 --CH3 [p-NH2 --Phe Tyr Leu ethyl]”, the “Relative ovulation-inducing activity” value was 2,150%.

The values above are taken from patent US4490291A, “Nonapeptide amides” (Takeda Chemical Industries, Ltd., priority 1973, dated 1984).
